Data published in patent US8114442B2, “Transdermal pharmaceutical delivery compositions” (Queen Mary & Westfield College, priority 2008, dated 2012).

Assays:
[1] = Pilot studies of local anaesthesia by pin-prick and thermal sensitivity testing; assay type: in vivo, human; conditions: applied directly to the skin without NO-generating gel; within 20 minutes
Excerpt: The anaesthetic used in these initial studies was xylocalne as it was readily available in a pharmaceutical form for mixing.

[2] = healthy 70 kg-adult; cited from earlier work

| SMILES | level of anaesthesia [1] | generally accepted safe dosage for topical anaesthesia [2] [mg] |
| --- | --- | --- |
| CCN(CC)CC(=O)Nc1c(C)cccc1C [xylocalne] | failed to produce any discernible level of anaesthesia | – |
| COC(=O)[C@H]1[C@@H](OC(=O)c2ccccc2)C[C@@H]2CC[C@H]1N2C [cocaine] | – | 200 |
| CCCCNc1ccc(C(=O)OCCN(C)C)cc1 [tetracaine] | – | 50 |
| CCN(CC)CC(=O)Nc1c(C)cccc1C [lidocaine] | – | 750 |
